The supplement of paper PMC10307832

What was measured:
Assay in all cases: relative viability (nuclei count vs DMSO), 5 days (fraction); higher = more cells survive
Masitinib + Palbociclib = compound: Cc1ccc(NC(=O)c2ccc(CN3CCN(C)CC3)cc2)cc1Nc1nc(-c2cccnc2)cs1 [Masitinib] + CC(=O)c1c(C)c2cnc(Nc3ccc(N4CCNCC4)cn3)nc2n(C2CCCC2)c1=O [Palbociclib] (partner 0.5 µM)
Summary of the method: (§1)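 Values are medians from duplicate plates. Each reflects relative viability, defined as the nuclei count of treated wells over that of vehicle wells. Lung cancer cell lines in 1536-well plates were pin-tool dosed one day after seeding with one drug alone or with a fixed anchor-drug dose plus five library-drug doses (not always all listed) in √10 steps, then fixed, stained and imaged at 4× after 5 days.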

[1] = compound: CC1=CC(=CC=C1)NC2=NC(=CS2)C3=CC=NC=C3 + CC(=O)c1c(C)c2cnc(Nc3ccc(N4CCNCC4)cn3)nc2n(C2CCCC2)c1=O [Palbociclib] (partner 0.5 µM)
Summary of the method: as §1

[2] = compound: CC1=CC(=CC=C1)NC2=NC(=CS2)C3=CC=NC=C3 + CCNC(=O)c1noc(-c2cc(C(C)C)c(O)cc2O)c1-c1ccc(CN2CCOCC2)cc1 [Luminespib] (partner 0.01 µM)
Summary of the method: as §1

[3] = compound: CC1=CC(=CC=C1)NC2=NC(=CS2)C3=CC=NC=C3 + NC(=O)Nc1cc(-c2cccc(F)c2)sc1C(=O)N[C@H]1CCCNC1 [AZD7762] (partner 0.2 µM)
Summary of the method: as §1

Cell Line | relative viability (Masitinib + Palbociclib; first compound 0.01 µM) | relative viability (Masitinib + Palbociclib; first compound 0.03162 µM) | relative viability (Masitinib + Palbociclib; first compound 0.1 µM) | relative viability (Masitinib + Palbociclib; first compound 0.3162 µM) | relative viability (Masitinib + Palbociclib; first compound 1 µM) | relative viability ([1]; first compound 0.08 µM) | relative viability ([1]; first compound 0.253 µM) | relative viability ([1]; first compound 0.8 µM) | relative viability ([1]; first compound 2.53 µM) | relative viability ([1]; first compound 8 µM) | relative viability ([2]; first compound 0.08 µM) | relative viability ([2]; first compound 0.253 µM) | relative viability ([2]; first compound 0.8 µM) | relative viability ([2]; first compound 2.53 µM) | relative viability ([2]; first compound 8 µM) | relative viability ([3]; first compound 0.08 µM) | relative viability ([3]; first compound 0.253 µM) | relative viability ([3]; first compound 0.8 µM) | relative viability ([3]; first compound 2.53 µM) | relative viability ([3]; first compound 8 µM)
NCI-H441 | 0.232 | 0.211 | 0.262 | 0.188 | 0.191 | 0.214 | 0.205 | 0.261 | 0.224 | 0.184 | 0.411 | 0.328 | 0.411 | 0.391 | 0.384 | 1.1 | 1.01 | 1.1 | 1.35 | 0.997
NCI-H1355 | 0.37 | 0.601 | 0.4 | 0.292 | 0.343 | 0.35 | 0.282 | 0.27 | 0.285 | 0.284 | 0.64 | 0.583 | 0.375 | 0.477 | 0.502 | 0.657 | 0.654 | 0.513 | 0.653 | 0.558
NCI-H23 | 0.439 | 0.482 | 0.598 | 0.575 | 0.527 | 0.37 | 0.459 | 0.518 | 0.479 | 0.524 | 0.208 | 0.184 | 0.208 | 0.221 | 0.22 | 0.283 | 0.276 | 0.213 | 0.244 | 0.223
NCI-H522 | 1.03 | 1.07 | 1.31 | 0.849 | 1.13 | 1.19 | 0.797 | 0.92 | 0.954 | 0.947 | 1.25 | 1.07 | 1.34 | – | 1.28 | 0.681 | 0.822 | 0.803 | 0.848 | 0.852
NCI-H650 | 0.33 | 0.332 | 0.331 | 0.318 | 0.318 | 0.256 | 0.339 | 0.322 | 0.342 | 0.371 | 0.866 | 0.803 | 0.929 | 0.687 | 0.893 | 0.766 | 0.896 | 1.05 | 0.926 | 0.999
NCI-H1793 | 0.282 | 0.279 | 0.348 | 0.303 | 0.259 | 0.269 | 0.305 | 0.297 | 0.261 | 0.336 | 0.182 | 0.177 | 0.177 | 0.202 | 0.344 | 0.366 | 0.487 | 0.522 | 0.789 | 0.407
NCI-H358 | 0.123 | 0.138 | 0.15 | 0.133 | 0.136 | 0.132 | 0.15 | 0.151 | 0.144 | 0.129 | 0.286 | 0.605 | 0.305 | 0.436 | 0.231 | – | 0.594 | 0.532 | 0.521 | 0.542
NCI-H2087 | 0.211 | 0.221 | 0.234 | 0.198 | 0.237 | 0.186 | 0.245 | 0.227 | 0.238 | 0.221 | 0.17 | 0.183 | 0.137 | 0.21 | 0.126 | 1.41 | 1.29 | 1.14 | 1.43 | 1.17
NCI-H838 | 0.205 | 0.182 | 0.22 | 0.192 | 0.244 | 0.22 | 0.205 | 0.207 | 0.217 | 0.179 | 0.38 | 0.318 | 0.324 | 0.316 | 0.25 | 0.812 | 0.924 | 0.85 | 0.928 | 0.829
NCI-H460 | 0.0985 | 0.105 | 0.14 | 0.071 | 0.126 | 0.0801 | 0.0813 | 0.0708 | 0.0785 | 0.086 | 0.0315 | 0.0322 | 0.04 | 0.0298 | 0.0349 | 0.555 | 0.529 | 0.625 | 0.622 | 0.497
LOU-NH91 | 0.564 | 0.47 | 0.57 | 0.562 | 0.527 | 0.571 | 0.572 | 0.547 | 0.54 | 0.545 | 0.319 | 0.351 | 0.33 | 0.297 | 0.314 | 0.615 | 0.631 | 0.714 | 0.761 | 0.468
NCI-H322M | 0.483 | 0.487 | 0.426 | 0.531 | 0.454 | 0.463 | 0.47 | 0.565 | 0.574 | 0.563 | 0.76 | 0.893 | 0.924 | 0.961 | 0.982 | 0.46 | 0.549 | 0.551 | 0.553 | 0.455
NCI-H727 | 0.599 | 0.692 | 0.668 | 0.621 | 0.618 | 0.725 | – | 0.541 | – | 0.695 | – | 0.373 | 0.378 | 0.374 | 0.402 | 0.669 | – | 0.745 | – | 0.507
NCI-H1944 | – | 0.295 | – | 0.312 | 0.307 | 0.288 | 0.307 | 0.298 | 0.299 | 0.292 | 0.674 | 0.771 | 0.792 | 0.654 | 0.72 | 0.401 | 0.552 | 0.706 | 0.527 | 0.47
NCI-H1755 | 0.428 | 0.474 | 0.448 | 0.491 | 0.402 | 0.432 | 0.429 | 0.412 | 0.442 | 0.393 | 0.519 | 0.46 | 0.428 | 0.37 | 0.486 | 0.491 | 0.418 | 0.46 | 0.486 | 0.376
H3255 | 0.294 | 0.35 | 0.299 | 0.321 | 0.326 | 0.358 | 0.332 | 0.363 | 0.306 | 0.318 | 0.902 | 0.681 | 0.905 | 0.702 | 0.826 | 0.936 | 0.902 | 0.866 | 0.665 | 0.765
201T | 0.326 | 0.386 | 0.364 | 0.369 | 0.375 | 0.401 | 0.319 | 0.359 | 0.348 | 0.336 | 1.08 | 0.993 | 1 | 0.95 | 0.849 | 0.811 | 0.79 | 0.777 | 0.865 | 0.618
HOP-62 | 0.455 | 0.447 | 0.59 | 0.438 | 0.506 | 0.454 | 0.446 | 0.497 | 0.447 | 0.571 | 0.952 | 0.8 | 0.867 | 0.914 | 0.879 | 0.629 | 0.598 | 0.619 | 0.861 | 0.578
CAL-12T | 0.445 | 0.333 | 0.455 | 0.305 | 0.502 | 0.402 | 0.414 | 0.391 | 0.329 | 0.586 | 0.399 | 0.355 | 0.335 | 0.513 | 0.29 | 0.527 | 0.63 | 0.604 | 0.516 | 0.561
NCI-H1792 | 0.572 | 0.448 | 0.701 | 0.611 | 0.611 | 0.596 | – | 0.614 | 0.624 | 0.672 | 0.305 | 0.407 | 0.375 | 0.326 | 0.351 | 0.459 | 0.529 | 0.628 | 0.755 | 0.524
NCI-H2085 | 0.432 | 0.493 | 0.486 | 0.491 | 0.459 | 0.464 | 0.463 | 0.475 | 0.47 | 0.349 | 0.381 | 0.428 | 0.444 | 0.383 | 0.393 | 0.904 | 1.01 | 0.847 | 0.993 | 0.575
